For this assay, the target named is T1, HIV-1 protease (Human immunodeficiency virus type 1 group M subtype B, UniProt P04585).
T1 construct: The HIV-1 protease is composed of 99 amino acids
In words: In vitro HIV-1 protease assay. Type of assay: biochemical. The note with it: for IC50: purified HIV-1 protease 15 picomolar, peptide substrate 440 micromolar, pH 5.5, 30° C., 60 minutes, HPLC fluorescence detection; for biological activity compared with another named compound, in words: comparator named in the value; for fold higher biological activity than the corresponding SRR (C4) diastereomer: SRS compound vs its SRR diastereomer (4 vs 3, 6 vs 5, 17 vs 16, 13 vs 12, 19 vs 18, 23 vs 22, 21 vs 20). The protocol: Compounds were evaluated for the ability to inhibit the enzymatic activity of HIV-1 protease in an in vitro assay. Protease activity was assessed in reactions catalyzed by purified HIV-1 protease at a concentration of 15 picomolar in buffer (50 mM sodium acetate, pH 5.5, 100 mM NaCl, 1 mg/mL bovine serum albumin) using a peptide substrate with sequence Val-Ser-Gln-Asn-(beta-naphthylalanine)-Pro-IIe-Val at a concentration of 440 micromolar in a final volume of 80 microliters. Compounds in DMSO stock were added to a final DMSO concentration of 2.5% and preincubated with enzyme prior to the initiation of the reaction by addition of substrate. Reactions were incubated at 30° C. for 60 minutes and were then quenched by the addition of 120 microliters 10% H3PO4. The amount of product formed was determined using high performance liquid chromatography with a Vydac C18 column and fluorescence detection of product. Percent inhibition was determined relative to control reactions without inhibitor, and half maximal inhibitory concentration (IC50) values were determined using a standard four parameter fit to the inhibition data. The IC50 is a quantitative measure of the effectiveness of a compound in inhibiting biological or biochemical function that indicates how much a particular compound or other substance is needed to inhibit a given biological process (or component of a process) by half.

Several values for one entry are separate records, joined by “and”; a condition that tells them apart may be missing. Equal entries are not always repeated.

As for `CC1Cc2ccccc2S(=O)(=O)N(C[C@@H](O)[C@H](Cc2ccccc2)NC(=O)OC(C)(C)C)C1` (mixture of isomers) [Compound 2], the concentration for half-maximal inhibition (IC50) – broadly, the concentration needed to halve the response being measured – is 240 nM and 220 nM. Further, under “mixture of two C4 diastereomers vs compound 1”, the “fold greater activity than compound 1 (R=H)” value is on record as “ten-fold greater activity”.

On to `CC(C)(C)OC(=O)N[C@@H](Cc1ccccc1)[C@H](O)CN1CC(c2ccccc2)Cc2ccccc2S1(=O)=O` (mixture of isomers) [Compound 7], for which the “biological activity compared with another named compound, in words” value was “biological activity higher than that of Compound 1” and the IC50 is 455 nM.

On to `CC(C)(C)OC(=O)N[C@@H](Cc1ccccc1)[C@H](O)CN1CCCc2ccccc2S1(=O)=O` [Compound 1], for which the “biological activity compared with another named compound, in words” value is given as “much less active when compared to Compound 4”; the concentration for half-maximal inhibition (IC50) was 2800 nM and 3050 nM.

Compound `C=CCOC(=O)N[C@@H](Cc1ccccc1)[C@H](O)CN1C[C@H](C)Cc2ccccc2S1(=O)=O` [Compound 3] had a half-maximal inhibitory concentration (IC50) of 5960 nM.

Take `C=CCOC(=O)N[C@@H](Cc1ccccc1)[C@H](O)CN1C[C@@H](C)Cc2ccccc2S1(=O)=O` [Compound 4]: the “fold higher biological activity than the corresponding SRR (C4) diastereomer” value is listed as “approximately 40 fold” and the IC50 was 157 nM.

The compound `CCOC(=O)N[C@@H](Cc1ccccc1)[C@H](O)CN1C[C@H](C)Cc2ccccc2S1(=O)=O` [Compound 5] gave an IC50 of 10800 nM.

Turning to `CCOC(=O)N[C@@H](Cc1ccccc1)[C@H](O)CN1C[C@@H](C)Cc2ccccc2S1(=O)=O` [Compound 6], the “fold higher biological activity than the corresponding SRR (C4) diastereomer” value was “approximately 54 fold” and 199 nM corresponded to half-maximal inhibition (IC50).

In the case of `C=CCOC(=O)N[C@@H](Cc1ccccc1)[C@H](O)CN1C[C@H](c2ccccc2)Cc2ccccc2S1(=O)=O` [Compound 8], the “biological activity compared with another named compound, in words” value is on record as “lower biological activity than that of Compound 9” and the IC50 was 3260 nM.

As to `C=CCOC(=O)N[C@@H](Cc1ccccc1)[C@H](O)CN1C[C@@H](c2ccccc2)Cc2ccccc2S1(=O)=O` [Compound 9], the “biological activity compared with another named compound, in words” value is given as “higher biological activity than that of Compound 3” and the IC50 worked out at 470 nM.

The compound `CCOC(=O)N[C@@H](Cc1ccccc1)[C@H](O)CN1C[C@H](c2ccccc2)Cc2ccccc2S1(=O)=O` [Compound 10] showed a concentration for half-maximal inhibition (IC50) of 2440 nM.

On to `CCOC(=O)N[C@@H](Cc1ccccc1)[C@H](O)CN1C[C@@H](c2ccccc2)Cc2ccccc2S1(=O)=O` [Compound 11], for which the “biological activity compared with another named compound, in words” value is “higher biological activity than that of Compound 10” and the 50% inhibitory concentration (IC50) amounted to 864 nM.

Regarding `C[C@@H]1Cc2cc(F)ccc2S(=O)(=O)N(C[C@@H](O)[C@H](Cc2ccccc2)NC(=O)OC(C)(C)C)C1` [Compound 12], inhibition was half-maximal at 15700 nM (IC50).

Turning to `C[C@H]1Cc2cc(F)ccc2S(=O)(=O)N(C[C@@H](O)[C@H](Cc2ccccc2)NC(=O)OC(C)(C)C)C1` [Compound 13], the “fold higher biological activity than the corresponding SRR (C4) diastereomer” value is on record as ~132 fold; the “biological activity compared with another named compound, in words” value is “higher biological activity than Compound 15”; the 50% inhibitory concentration (IC50) worked out at 119 nM.

With `C[C@@H]1Cc2ccccc2S(=O)(=O)N(C[C@@H](O)[C@H](Cc2ccccc2)NC(=O)OC(C)(C)C)C1` [Compound 14], the half-maximal inhibitory concentration (IC50) was found to be 5470 nM.

For `C[C@H]1Cc2ccccc2S(=O)(=O)N(C[C@@H](O)[C@H](Cc2ccccc2)NC(=O)OC(C)(C)C)C1` [Compound 15], the “biological activity compared with another named compound, in words” value is recorded as “higher biological activity than that of Compound 14” and the 50% inhibitory concentration (IC50) worked out at 169 nM.

Turning to `C[C@H]1Cc2ccccc2S(=O)(=O)N(C[C@@H](O)[C@H](Cc2ccccc2)NC(=O)Oc2ccccc2)C1` [Compound 17], the “fold higher biological activity than the corresponding SRR (C4) diastereomer” value is “approximately 10 fold”; the “biological activity compared with another named compound, in words” value is recorded as “higher activity than Compound 16”; the half-inhibitory concentration (IC50) was determined as 2060 nM.

On to `C[C@H]1Cc2cc(C(F)(F)F)ccc2S(=O)(=O)N(C[C@@H](O)[C@H](Cc2ccccc2)NC(=O)OC(C)(C)C)C1` [Compound 19], for which the “biological activity (HIV-1 protease inhibition) in words” value is “not very active”, the “fold higher biological activity than the corresponding SRR (C4) diastereomer” value is listed as ~18 fold and half-maximal inhibition (IC50) was put at 1120 nM.

`C[C@@H]1Cc2ccc(C(F)(F)F)cc2S(=O)(=O)N(C[C@@H](O)[C@H](Cc2ccccc2)NC(=O)OC(C)(C)C)C1` [Compound 20] returned an IC50 of 8300 nM.

As to `C[C@H]1Cc2ccc(C(F)(F)F)cc2S(=O)(=O)N(C[C@@H](O)[C@H](Cc2ccccc2)NC(=O)OC(C)(C)C)C1` [Compound 21], the “fold higher biological activity than the corresponding SRR (C4) diastereomer” value was ~14 fold and half-maximal inhibition (IC50) required 612 nM.

As to `COc1ccc2c(c1)C[C@@H](C)CN(C[C@@H](O)[C@H](Cc1ccccc1)NC(=O)OC(C)(C)C)S2(=O)=O` [Compound 22], the “biological activity (HIV-1 protease inhibition) in words” value is “not active” and the half-maximal inhibitory concentration (IC50) amounted to 6100 nM.

In the case of `COc1ccc2c(c1)C[C@H](C)CN(C[C@@H](O)[C@H](Cc1ccccc1)NC(=O)OC(C)(C)C)S2(=O)=O` [Compound 23], the “biological activity (HIV-1 protease inhibition) in words” value was “excellent activity”, the “fold higher biological activity than the corresponding SRR (C4) diastereomer” value is given as ~57 fold and the IC50 was found to be 107 nM.

`C[C@H]1Cc2cc(F)ccc2S(=O)(=O)N(C[C@@H](O)[C@H](Cc2ccccc2)NC(=O)C2CN(c3ccccc3)C(=O)O2)C1` (stereo partly drawn) [Compound 24]: the “biological activity (HIV-1 protease inhibition) in words” value was “highly active” and the IC50 was 176 nM.

For the origin of these results see patent US8283346B2, “Human immunodeficiency virus protease inhibitors” (The Trustees of the Stevens Institute of Technology, priority 2009, dated 2012).
